Source: article PMC10629879 (Frontiers in drug delivery, 2022)

How the values were obtained:
[1] = test system: isolated mouse brain microvessels; test: 125I-insulin surface binding and internalization in isolated brain microvessels with endocytosis inhibitors; assay type: cell-based; conditions: relative to vehicle; for amount of 125I-insulin internalized, difference vs vehicle (increase): inhibitor 15 min 37°C (monensin 10 μM, p = 0.079 not significant; CPZ 2.8 mM in 20% MeOH, p = 0.018), then 125I-insulin 15 min 37°C, cytoplasmic + membrane fraction; for microvessel surface binding of 125I-insulin, difference vs vehicle (increase): ~90 μg protein, inhibitor 15 min 37°C (monensin 10 μM; CPZ 2.8 mM in 20% MeOH), then 125I-insulin 400,000 CPM 15 min 37°C, acid-wash reversible binding, gamma counter, 2-3 biological replicates
Procedure: Whole brains were pooled and homogenized in chilled isolation buffer (DMEM, 25 mM HEPES, pH 7.4, 1% (w/v) dextran and 0.5% BSA) with a Dounce homogenizer. A range of 8–20 brains were pooled each experimental day. The homogenate was poured once through a 300 μm mesh, then twice through a 100 μm mesh. The filtrate was combined with an equivalent volume of chilled 40% dextran in isolation buffer and centrifuged at 3000 g for 30 min at 4°C. The pellet was resuspended in 1 ml of isolation buffer and pipetted twice through a 20 μm pluriStrainer® mesh (pluriSelect Life Science, Leipzig, Germany), before a final rinse with isolation buffer. […] The pellet was resuspended in 1 ml of PBS and spun at 500 g for 3 min at 4°C three times.
Briefly, the suspended pellet was evenly split between treatment groups, with two technical replicates per group. On average, each binding assay involved approximately 90 μg protein from the isolated microvessels in 40–45 μL. Each study was repeated with separate isolated microvessels for 2-3 biological replicates per study. Microvessels were treated with vehicle or an endocytosis inhibitor. Inhibitors were made up in incubation buffer and/or MeOH. Final concentrations for inhibitors include: monensin (10 μM), CPZ (2.8 mM in 20% MeOH), and filipin III (2 μg/ml in 0.2% MeOH) with respective vehicle MeOH controls. […] Samples were centrifuged at 10,000 g for 2 min at 4°C, and the supernatants were collected. The pellets were resuspended in incubation buffer, centrifuged at 4,225 g for 2 min at 4°C, and the supernatants were combined with the previous ones. The radioactivity in the pellets and combined supernatants were measured in a gamma counter (Wizard^2, PerkinElmer). In order to determine the amount of substrate bound to the cell surface, the pellet was resuspended in 400 μL of chilled acid wash buffer (0.2 M glycine, 0.15 M NaCl) to strip the surface of reversibly bound substrates on ice for 6 min, centrifuged at 4,225 g for 2 min at 4°C. The supernatant was collected and measured in a gamma counter as before to determine the amount of reversible binding (RB) at the plasma membrane, which we have called surface binding. To determine the amount of substrate internalized, the pellet was resuspended in 400 μL of chilled 1% BSA in deionized water and incubated for 1 h on ice to lyse the cells. The sample was centrifuged as before, the supernatant was collected, and the pellet was suspended again in 1% BSA and incubated on ice for 30 min. The sample was centrifuged, the supernatant was combined with the previous one, and both supernatant and pellet were measured in a gamma counter. […]
Percentages were calculated by dividing the measurement of interest (surface binding or internalization) by the total counts present in the sample and multiplying by 100. […]

blood-brain barrier [2] = test: In situ brain perfusion: 125I-insulin BBB transport (Ki) and vascular binding (Vi) after inhibitor pre-perfusion; assay type: in vivo, mouse; conditions: for effect on 125I-insulin transport (Ki) or vascular binding (Vi) (in words): whole brain or olfactory bulb
Procedure: Following anesthesia, the thoracic cavity was opened and the descending thoracic aorta was clamped and jugular veins were cut to allow blood to drain from the brain vascular space. A 26-gauge butterfly needle was inserted into the left ventricle of the heart and mice were pre-perfused with vehicle or inhibitor at a rate of 2 ml/min. Mice were perfused with vehicle (1% MeOH in Zlokovic buffer: 7.19 g/L NaCl, 0.3 g/L KCl, 0.28 g/L CaCl2, 2.1 g/L NaHCO3, 0.16 g/L KH2PO4, 0.17 g/L anhydrous MgCl2, 0.99 g/L D-glucose and 1% BSA) ± 5 μM monensin or 2 μg/ml filipin III. […] Mice were perfused for timepoints ranging from 0.5 to 5 min. Whole brains, olfactory bulbs, and the hypothalamus were collected, weighed, and measured for radioactivity in a gamma counter. Brain/perfusate ratios (μL/g) were calculated by dividing the cpm per Gram of tissue by the cpm per μL of perfusate and plotted against perfusion time.
Regression analysis and other statistical analyses were performed using Prism 8.0 (GraphPad Software Inc., San Diego, CA, United States). For microvessel binding assays, the means are reported with their standard error terms and compared by a Student’s t test was. p values less than 0.05 were considered statistically significant. For in situ brain perfusion studies, linear regressions were performed on the brain/serum or brain/perfusate ratios using GraphPad Prism software. Linear regression lines were compared statistically with the Prism 8.0 software package. They are reported with their correlation coefficients (r) and linear regression p values.

insulin receptor = molecular target: T1, insulin receptor (Mus musculus, UniProt P15208); test: In vivo regional 125I-S961 binding at the BBB after IV monensin pre-treatment; conditions: 30 min IV pre-treatment, 100 μL of 50 μM monensin in 10% MeOH in 0.1% BSA/LR; 125I-S961 circulated 5 min; olfactory bulb and 10 brain regions; two-way ANOVA treatment p = 0.0008, no post hoc differences; n = 6/group
T1 construct: from tissue; host or cells: living mouse; brain vasculature (olfactory bulb and 10 dissected brain regions)
Procedure: In anesthetized mice, the jugular vein was exposed and a 100 μL IV injection containing vehicle (10% MeOH in 0.1% BSA/LR) or monensin (50 μM in 10% MeOH in 0.1% BSA/LR) was administered. Thirty min later, a second 100 μL IV injection containing 1 × 10^6 ^125I-[…] was administered and circulated for 5 min. Blood was collected from the descending aorta, the olfactory bulbs and whole brains removed, and whole brains dissected into 10 brain regions according to the method by [Glowinski and Iversen, (1966)]. The amount of radioactivity in each region was counted in a gamma counter (Wizard^2, PerkinElmer) and corrected for the % injected ^125I-[…] (based on injection checks) and divided by the weight of the tissue (g) to get %Inj/g levels.

blood-brain barrier [3] = assay type: in vivo, mouse; conditions: 50 μM monensin IV pre-treatment 30 min vs vehicle
Procedure: The reaction started with the addition of 10 μg chloramine-T in 0.25 M PB and terminated 1 min later with addition of 100 μg sodium metabisulfite. ^131I-albumin was labeled was labeled the same way except used 2 mCi ^131I (Perkin-Elmer, Waltham, MA, United States). ^131I-albumin was used as a vascular marker for the ^125I-transferrin multiple-time regression analysis transport studies as previously described ([Rhea et al., 2018]). A Sephadex G-10 column (Sigma-Aldrich) was used to separate labeled peptides and proteins from free iodine. Protein labeling was characterized by 15% trichloroacetic acid (TCA) precipitation. The radioactively labeled substrates we injected were quality-controlled materials, negating the overestimation of free ^125I.
FIGURE 3 Role of clathrin in transferrin hypothalamic BBB transport.

[4] = hypothalamus, 2 μg/ml filipin pre-perfusion 10 min
[5] = olfactory bulb, 2 μg/ml filipin pre-perfusion 10 min
[6] = whole brain, 2 μg/ml filipin pre-perfusion 10 min

T1 sequence (P15208 28-748 limits assumed): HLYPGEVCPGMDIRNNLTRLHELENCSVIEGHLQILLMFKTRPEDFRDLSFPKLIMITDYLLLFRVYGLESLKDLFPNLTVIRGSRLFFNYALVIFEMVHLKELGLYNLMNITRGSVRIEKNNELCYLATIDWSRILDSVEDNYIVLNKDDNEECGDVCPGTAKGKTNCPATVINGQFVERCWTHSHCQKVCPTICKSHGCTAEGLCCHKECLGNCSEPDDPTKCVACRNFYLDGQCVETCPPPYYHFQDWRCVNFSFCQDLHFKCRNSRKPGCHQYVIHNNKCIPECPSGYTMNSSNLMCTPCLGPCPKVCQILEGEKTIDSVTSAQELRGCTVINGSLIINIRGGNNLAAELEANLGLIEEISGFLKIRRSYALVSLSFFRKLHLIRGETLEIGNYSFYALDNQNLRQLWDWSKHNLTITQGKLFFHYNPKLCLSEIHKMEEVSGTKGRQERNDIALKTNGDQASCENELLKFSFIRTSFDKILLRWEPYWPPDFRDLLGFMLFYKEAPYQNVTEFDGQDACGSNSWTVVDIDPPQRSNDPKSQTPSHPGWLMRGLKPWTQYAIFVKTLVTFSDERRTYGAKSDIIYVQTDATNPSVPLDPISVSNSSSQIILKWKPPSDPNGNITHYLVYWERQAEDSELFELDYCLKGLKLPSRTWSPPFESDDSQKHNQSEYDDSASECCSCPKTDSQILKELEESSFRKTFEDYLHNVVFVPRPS
T1 sequence (P15208 753-1372 partner limits assumed): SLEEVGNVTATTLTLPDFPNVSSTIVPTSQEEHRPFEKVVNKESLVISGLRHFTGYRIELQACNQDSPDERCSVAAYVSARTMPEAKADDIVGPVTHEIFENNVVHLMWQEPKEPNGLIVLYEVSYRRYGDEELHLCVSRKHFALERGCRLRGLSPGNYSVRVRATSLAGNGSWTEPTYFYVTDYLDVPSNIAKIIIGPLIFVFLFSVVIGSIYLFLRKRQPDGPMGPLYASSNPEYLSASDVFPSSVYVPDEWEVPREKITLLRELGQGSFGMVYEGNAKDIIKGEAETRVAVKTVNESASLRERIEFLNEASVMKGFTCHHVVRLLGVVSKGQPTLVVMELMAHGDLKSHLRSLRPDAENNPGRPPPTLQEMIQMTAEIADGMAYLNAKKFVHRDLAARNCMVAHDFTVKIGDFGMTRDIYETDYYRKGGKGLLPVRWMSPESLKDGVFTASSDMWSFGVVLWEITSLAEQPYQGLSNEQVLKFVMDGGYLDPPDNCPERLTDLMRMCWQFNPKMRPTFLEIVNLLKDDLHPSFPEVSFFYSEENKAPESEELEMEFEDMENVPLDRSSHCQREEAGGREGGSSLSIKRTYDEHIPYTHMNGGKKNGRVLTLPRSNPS

Compound	amount of 125I-insulin internalized, difference vs vehicle (increase) [1]	microvessel surface binding of 125I-insulin, difference vs vehicle (increase) [1]	Vi of 125I-insulin (blood-brain barrier [2]; [4])	effect on 125I-insulin transport (Ki) (in words) (blood-brain barrier [2]; [4])	Ki of 125I-insulin (blood-brain barrier [2]; hypothalamus, 2 μg/ml filipin pre-perfusion 10 min, ns, slope did not significantly differ from zero)	Ki of 125I-insulin (blood-brain barrier [2]; hypothalamus, 2 μg/ml filipin pre-perfusion 10 min, ns, slope did not significantly differ from zero, listed as filipin)	Ki of 125I-insulin (blood-brain barrier [2]; [5])	Vi of 125I-insulin (blood-brain barrier [2]; [5])	effect on 125I-insulin transport (Ki) or vascular binding (Vi) (in words) (blood-brain barrier [2]; 2 μg/ml filipin pre-perfusion 10 min)	Ki of 125I-insulin (blood-brain barrier [2]; [6])	Vi of 125I-insulin (blood-brain barrier [2]; [6])	125I-S961 binding (%Inj/g), effect of pre-treatment (in words) (insulin receptor)	decrease in hypothalamic BBB transport of 125I-transferrin (blood-brain barrier [3])	effect on 125I-insulin transport (Ki) or vascular binding (Vi) (in words) (blood-brain barrier [2]; 5 μM monensin pre-treatment 10 min)
CN(C)CCCN1c2ccccc2Sc2ccc(Cl)cc21 [CPZ, chlorpromazine]	76.9%	42.2%	–	–	–	–	–	–	–	–	–	–	–	–
CCCCC[C@@H](O)[C@H]1C(=O)O[C@H](C)[C@@H](O)/C=C/C=C/C=C/C=C/C=C(\C)[C@@H](O)C[C@H](O)C[C@H](O)C[C@H](O)C[C@H](O)C[C@H](O)C[C@@H]1O [Filipin, Filipin III]	–	–	8.4 ± 2.3 µL/g	does limit transport	0.94 ± 0.66 µL/g/min	0.94 ± 0.43 µL/g/min	3.06 ± 0.93 µL/g/min	2.8 ± 3.0 µL/g	no effect	0.94 ± 0.43 µL/g/min	5.0 ± 1.5 µL/g	–	–	–
CC[C@@]1([C@@H]2O[C@@H]([C@H]3O[C@@](O)(CO)[C@H](C)C[C@@H]3C)C[C@@H]2C)CC[C@H]([C@]2(C)CC[C@]3(C[C@H](O)[C@@H](C)[C@@H]([C@@H](C)[C@@H](OC)[C@H](C)C(=O)O)O3)O2)O1 [Monensin]	33.7%	36.3%	–	–	–	–	–	–	–	–	–	significantly increased	80%	no effect
